What was measured:
DRB1*03:01 = molecular target: T1, DRB1*03:01 (Homo sapiens, UniProt P01903+P01911, A100K/A102G/A103R/A169T/F55Y/I96L/K41T/L162R/M171V/P40S/Q125H/Q178H/Q39Y/R42S/S66N/T106N/T262R/W38E/Y61H); assay: REVEAL HLA-Peptide binding assay (ProImmune); conditions: score relative to high-affinity control peptide, percentage of the control signal
T1 construct: purchased ProImmune
Method: (§1) To test the designs, we synthesized twenty overlapping 15-mer peptides containing the introduced mutations and their wild-type counterparts. The peptides maximally covered the predicted epitopes around the mutations of all designed constructs that contained one and two mutations (Supplementary S2 Table). The affinity of these peptides to the three HLA alleles was measured at time zero and after 24 hours (Methods, Supplementary S3 and S4 Tables). We linearly combined the measured relative affinity scores across HLA alleles weighted by their allele frequencies for each peptide respectively to produce a score that approximates the overall immunogenicity (Fig 5A). Results are presented for measurements taken at time point zero. […] Overall, the measured and predicted immunogenicity of the tested peptides correlated well with r = 0.76 (CI95 = [0.48, 0.91], t = 4.885, df = 17, p-value = 1.4e-4; Fig 5A). Next, we compared the predicted and measured gain or loss in immunogenicity for the whole region by reconstructing the targeted region using overlapping peptides. The measured relative scores were linearly combined (as previously) and then normalized to the number of overlapping peptides used in the reconstruction (Fig 5B). The difference in the measured scores between the wild type and mutant regions can be thought of as a proxy for gain or loss in immunogenicity and correlated well to the predicted changes (r = 0.86, CI95 = [0.40, 0.97], t = 4.136, df = 6, p-value = 6.1e-3; Fig 5B).
(§2) In order to experimentally verify our in silico predictions for Factor VIII, we utilized the commercial REVEAL HLA-Peptide binding assay of ProImmune (www.proimmune.com). Peptides were synthesized using the PEPscreen custom library synthesis method, yielding high purity peptides for experimental analysis. HLA-peptide binding was assessed for the three HLA-DRB1 alleles used in this study (DRB1*15:01, DRB1*03:01 and DRB1*07:01). In short, the method compares the affinity of the studied peptide to the affinity of a high-affinity control peptide. Each peptide is then scored for binding to a certain HLA molecule relative to the score of the control peptide and reported as the percentage of the signal generated by the control peptide.

DRB1*07:01 = DRB1*07:01 (Homo sapiens, UniProt P01903+P01911, A100R/A102G/A103Q/D57E/D86V/E43K/F76Y/K127E/L162R/M171V/P40G/Q125H/Q99D/R33Q/R42Y/R54Q/S133A/S66F/T210M/V115G/Y107V/Y59L/Y89S); assay: REVEAL HLA-Peptide binding assay (ProImmune); conditions: score relative to high-affinity control peptide, percentage of the control signal
Method: as §1, §2

DRB1*15:01 = molecular target: T2, DRB1*15:01 (Homo sapiens, UniProt P01903+P01911); assay: REVEAL HLA-Peptide binding assay (ProImmune); conditions: score relative to high-affinity control peptide, percentage of the control signal
T2 construct: purchased ProImmune
Method: as §1, §2

[1] = test system: DRB1*15:01, DRB1*03:01 and DRB1*07:01; assay: Experimental immunogenicity score: relative HLA binding combined across alleles, weighted by allele frequency; set-up: species or system human; key: allele-frequency-weighted sum of binding, % of control peptide signal; conditions: for Difference to WT (Experimental Score): per peptide against wild-type counterpart; for Experimental Score: per peptide, weights DRB1*15:01 0.162, DRB1*07:01 0.146, DRB1*03:01 0.143
Method: as §1
Fig 5 (A) Correlation of experimental and predicted immunogenicity of each peptide. The experimental immunogenicity score of a peptide is defined as the linear combination of the individual experimentally determined relative HLA binding affinity of each HLA allele h ∈ H weighted by the HLA allele frequency. (B) Correlation of experimental and predicted immunogenicity of the whole redesigned region. The summarized immunogenicity score of the whole region is the linear combination of the overlapping peptides used to reconstruct the region, normalized by total number of peptides used. The predicted immunogenicity scores per peptide were computed according to our immunogenicity objective function. The red lines are a fitted linear regression and the red tubes represent their 95-confidence interval.
as §2

[2] = time 0 (H0), listed as VNSLDPPLYTRYLRI
[3] = time 0 (H0), listed as VNSLDPPLTTRYLRI
[4] = time 0 (H0), listed as YTRYLRIHPQSWEHQ
[5] = time 0 (H0), listed as LTRHLRIHPQSWEHQ
[6] = time 0 (H0), listed as VNSLDPPLFTRYLRI

Sequence: VNSLDPPLYTRYLRI [Design M-3, peptide covering L2321Y]
- DRB1*03:01 (DRB1*03:01; after 24 hours (H24)): 0.000%
- DRB1*03:01 (DRB1*03:01; time 0 (H0)): 0.000%
- DRB1*03:01 (DRB1*03:01; [2]): 0%
- DRB1*07:01 (DRB1*07:01; after 24 hours (H24)): 0.900%
- DRB1*07:01 (DRB1*07:01; time 0 (H0)): 3.600%
- DRB1*07:01 (DRB1*07:01; [2]): 3.6%
- DRB1*15:01 (DRB1*15:01; after 24 hours (H24)): 0.000%
- DRB1*15:01 (DRB1*15:01; time 0 (H0)): 0.000%
- DRB1*15:01 (DRB1*15:01; [2]): 0%
- Difference to WT (Experimental Score) ([1]; after 24 hours (H24)): 0.077
- Experimental Score ([1]; after 24 hours (H24)): 0.131
- Difference to WT (Experimental Score) ([1]; time 0 (H0)): -0.871
- Experimental Score ([1]; time 0 (H0)): 0.526

Sequence: VNSLDPPLTTRYLRI [Design M-2, peptide covering L2321T]
- DRB1*03:01 (DRB1*03:01; after 24 hours (H24)): 0.000%
- DRB1*03:01 (DRB1*03:01; time 0 (H0)): 0.100%
- DRB1*03:01 (DRB1*03:01; [3]): 0.1%
- DRB1*07:01 (DRB1*07:01; after 24 hours (H24)): 0.000%
- DRB1*07:01 (DRB1*07:01; time 0 (H0)): 0.100%
- DRB1*07:01 (DRB1*07:01; [3]): 0.1%
- DRB1*15:01 (DRB1*15:01; after 24 hours (H24)): 0.000%
- DRB1*15:01 (DRB1*15:01; time 0 (H0)): 0.000%
- DRB1*15:01 (DRB1*15:01; [3]): 0%
- Difference to WT (Experimental Score) ([1]; after 24 hours (H24)): -0.054
- Experimental Score ([1]; after 24 hours (H24)): 0.000
- Difference to WT (Experimental Score) ([1]; time 0 (H0)): -1.367
- Experimental Score ([1]; time 0 (H0)): 0.029

Sequence: YTRYLRIHPQSWEHQ [Design M-12, peptide covering L2321Y, V2333E]
- DRB1*03:01 (DRB1*03:01; after 24 hours (H24)): 0.200%
- DRB1*03:01 (DRB1*03:01; time 0 (H0)): 0.155%
- DRB1*03:01 (DRB1*03:01; [4]): 0.2%
- DRB1*07:01 (DRB1*07:01; after 24 hours (H24)): 40.700%
- DRB1*07:01 (DRB1*07:01; time 0 (H0)): 59.728%
- DRB1*07:01 (DRB1*07:01; [4]): 59.7%
- DRB1*15:01 (DRB1*15:01; after 24 hours (H24)): 0.700%
- DRB1*15:01 (DRB1*15:01; time 0 (H0)): 3.876%
- DRB1*15:01 (DRB1*15:01; [4]): 3.9%
- Difference to WT (Experimental Score) ([1]; after 24 hours (H24)): -7.303
- Experimental Score ([1]; after 24 hours (H24)): 6.084
- Difference to WT (Experimental Score) ([1]; time 0 (H0)): -8.351
- Experimental Score ([1]; time 0 (H0)): 9.370

Sequence: LTRHLRIHPQSWEHQ [Design M-8, peptide covering Y2324H, V2333E]
- DRB1*03:01 (DRB1*03:01; after 24 hours (H24)): 0.000%
- DRB1*03:01 (DRB1*03:01; time 0 (H0)): 0.000%
- DRB1*03:01 (DRB1*03:01; [5]): 2.5%
- DRB1*07:01 (DRB1*07:01; after 24 hours (H24)): 0.100%
- DRB1*07:01 (DRB1*07:01; time 0 (H0)): 2.480%
- DRB1*07:01 (DRB1*07:01; [5]): 14.0%
- DRB1*15:01 (DRB1*15:01; after 24 hours (H24)): 2.000%
- DRB1*15:01 (DRB1*15:01; time 0 (H0)): 13.999%
- DRB1*15:01 (DRB1*15:01; [5]): 0.0%
- Difference to WT (Experimental Score) ([1]; after 24 hours (H24)): -13.048
- Experimental Score ([1]; after 24 hours (H24)): 0.339
- Difference to WT (Experimental Score) ([1]; time 0 (H0)): -15.092
- Experimental Score ([1]; time 0 (H0)): 2.630

Sequence: VNSLDPPLFTRYLRI [Design M-1, peptide covering L2321F]
- DRB1*03:01 (DRB1*03:01; after 24 hours (H24)): 0.165%
- DRB1*03:01 (DRB1*03:01; time 0 (H0)): 0.165%
- DRB1*03:01 (DRB1*03:01; [6]): 0.2%
- DRB1*07:01 (DRB1*07:01; after 24 hours (H24)): 0.497%
- DRB1*07:01 (DRB1*07:01; time 0 (H0)): 6.490%
- DRB1*07:01 (DRB1*07:01; [6]): 6.5%
- DRB1*15:01 (DRB1*15:01; after 24 hours (H24)): 0.000%
- DRB1*15:01 (DRB1*15:01; time 0 (H0)): 0.427%
- DRB1*15:01 (DRB1*15:01; [6]): 0.4%
- Difference to WT (Experimental Score) ([1]; after 24 hours (H24)): 0.042
- Experimental Score ([1]; after 24 hours (H24)): 0.096
- Difference to WT (Experimental Score) ([1]; time 0 (H0)): -0.356
- Experimental Score ([1]; time 0 (H0)): 1.040
